Measurements as given in patent publication US4442106A, “Quinoline derivatives, pharmaceutical compositions containing such compounds, and methods of treating cardiovascular conditions with them” (ACF Chemiefarma N.V., priority 1980, dated 1984).
Read-outs that look alike come from different tables or passages of the source.

Columns and labels:
[1] = test system: spontaneously hypertensive rats; experiment: Effectiveness in spontaneously hypertensive rats: systolic blood pressure by tail cuff method; format: in vivo; settings: Rattus norvegicus, read-out: Change of systolic blood-pressures
Experimental: Experiment 1-Effectiveness of the compounds of Examples in spontaneously hypertensive rats
Systolic blood pressures were recorded by a modification of the tail cuff method described by I.M. Claxton et al., Eur. J.Pharmacology 37, 179 (1976). An oscilloscope or W+W BP recorder, model 8002, was used to display pulses.
Prior to all measurements rats were placed in a heated environment (33.5±0.5° C.) before transfer to a restraining cage. Each determination of blood pressure was the mean of at least 6 readings.
Spontaneously hypertensive rats (aged 12-18 weeks) with systolic blood pressures >170 mm Hg were considered hypertensive.
In the following table the results with certain compounds of the invention, which have been carried out with the above-described method, are mentioned. The numbers of the compounds correspond with those of the Examples.

[2] = test system: right ventricle of the heart; experiment: Guinea Pigs Electrostimulation Test (arrhythmias by electrostimulation of the right ventricle of the heart); format: in vivo; settings: Cavia porcellus, 0.5 h, 30 minutes before stimulation, read-out: Percent increase in voltage required for arrhythmia; for change in vivo at 32 mg/kg: standard dose 32 mg/kg intraduodenal
Experimental: Experiment 2-Effectiveness of the compounds of Examples in the Guinea Pigs Electrostimulation Test
Arrhythmias are induced in guinea pigs by electrostimulation of the right ventricle of the heart. The animals are anaesthesized with urethane (1.2 g/kg i.p.) and artificially respirated before a needle electrode is inserted in the right ventricle of the heart. Substances are given intraduodinally 30 minutes before the stimulation at a standard dose of 32 mg/kg. In some cases a different dose was used as indicated.
The voltage needed for induction of extra systoles in control animals (n=6) is compared with that required for induction of arrhythmias in treated animals (n=6).
This method is based on the work of L. Szekeres and G. J. Papp, Naunyn-Schmiedebergs Arch. Exp. Path. Pharmak., 245, 70 (1963).
In the table the results of certain compounds of the invention are mentioned, which have been carried out according to the method described above.
The numbers of the compounds correspond with those of the Examples.

Work on CC[C@H]1CN(CCCC(=O)c2ccccc2)CC[C@H]1CCCc1cc(C)nc2ccccc12 [Compound 45, N-(3-benzoylpropyl)-2'-methyl-desoxo-hydrocinchonicine] yielded a change in vivo at 10 mg/kg ([1]; 1 h) of -14%, a change in vivo at 10 mg/kg ([1]; 2 h) of -6% and a change in vivo at 10 mg/kg ([1]; 4 h) of -14%. For the same compound, the change in vivo at 10 mg/kg ([1]; 6 h) was -21% and the change in vivo at 10 mg/kg ([1]; 24 h) was -2%.
In the case of CCCN1CC[C@@H](CCCc2cc(C)nc3ccccc23)[C@@H](CC)C1 [Compound 43, 2'-Methyl-N-propyl-desoxo-hydrocinchonicine.bioxalate], the change in vivo at 100 mg/kg ([1]; 1 h) is reported as -1%, the change in vivo at 100 mg/kg ([1]; 2 h) is reported as -12% and the change in vivo at 100 mg/kg ([1]; 4 h) is reported as -28%. For the same compound, the change in vivo at 100 mg/kg ([1]; 24 h) was -15% and the change in vivo at 32 mg/kg [2] was 9%.
In the case of CCCCCN1CC[C@@H](CCCc2cc(C)nc3ccccc23)[C@@H](CC)C1 [Compound 44, N-pentyl-2'-methyl-desoxo-hydrocinchonicine], the change in vivo at 100 mg/kg ([1]; 1 h) is reported as 2%, the change in vivo at 100 mg/kg ([1]; 2 h) is reported as -15% and the change in vivo at 100 mg/kg ([1]; 4 h) is reported as -30%. For the same compound, the change in vivo at 100 mg/kg ([1]; 6 h) was -43% and the change in vivo at 100 mg/kg ([1]; 24 h) was -6%.
In the case of CCCN1CC[C@@H](CC(O)Cc2cc(C(F)(F)F)nc3ccccc23)[C@@H](CC)C1 (stereo partly drawn) [Compound 60, N-propyl-2'-trifluoromethyl-hydrocinchonicinol-2], the change in vivo at 8 mg/kg ([2]; intraduodenal) is reported as 137%.
CC[C@H]1CN(CCCC(=O)c2ccc(F)cc2)CC[C@H]1CCCc1cc(C(F)(F)F)nc2ccccc12 [Compound 50] was tested, and the change in vivo at 10 mg/kg ([1]; 1 h) was -4%, the change in vivo at 10 mg/kg ([1]; 2 h) was -16% and the change in vivo at 10 mg/kg ([1]; 4 h) was -16%. For the same compound, the change in vivo at 10 mg/kg ([1]; 6 h) was -13%.
Work on CCCN1CC[C@@H](CCC(O)c2cc(C)nc3ccccc23)[C@@H](CC)C1 (stereo partly drawn) [Compound 38, N-propyl-2'-methyl-hydrocinchonicinol-1] yielded a change in vivo at 10 mg/kg ([1]; 1 h) of 1%, a change in vivo at 10 mg/kg ([1]; 2 h) of 0% and a change in vivo at 10 mg/kg ([1]; 4 h) of -3%. It also gave a change in vivo at 10 mg/kg ([1]; 6 h) of -4%, a change in vivo at 10 mg/kg ([1]; 24 h) of 0% and a change in vivo at 16 mg/kg ([2]; intraduodenal) of 31%.
With CCCN1CC[C@@H](CC(O)Cc2cc(C(F)(F)F)nc3ccccc23)[C@@H](CC)C1 (stereo partly drawn) [Compound 58, N-propyl-2'-trifluoromethyl-hydrocinchonicinol-2] the change in vivo at 10 mg/kg ([2]; at 10 mg/kg, intraduodenal) was 133%.
Compound CCCN1CC[C@@H](CCCc2cc(O)nc3ccccc23)[C@@H](CC)C1 [Compound 48] has a change in vivo at 16 mg/kg ([2]; intraduodenal) of 19%.
With CC[C@H]1CN(CC(C)(C)O)CC[C@H]1CCC(=NOC)c1cc(C)nc2ccccc12 [Compound 66, N-(2-Hydroxy-2-methylpropyl)-2'-methyl-hydrocinchonicine-O-methyl oxime ether.bioxalate] the change in vivo at 16 mg/kg ([2]; intraduodenal) was 43%.
For CC[C@H]1CN(CCCC(=O)c2ccccc2)CC[C@H]1CC(O)Cc1cc(OC)nc2ccccc12 (stereo partly drawn) [Compound 54, N-(3-benzoylpropyl)-2'-methoxy-hydrocinchonicinol-2], the change in vivo at 10 mg/kg ([1]; 1 h) was -17%, the change in vivo at 10 mg/kg ([1]; 2 h) was -1% and the change in vivo at 10 mg/kg ([1]; 4 h) was -16%. The change in vivo at 10 mg/kg ([1]; 6 h) was -16%, the change in vivo at 10 mg/kg ([1]; 24 h) was 7% and the change in vivo at 32 mg/kg [2] was 16%.
CCCc1cc(C(=O)CC[C@@H]2CCN(CCCC(=O)c3ccccc3)C[C@@H]2CC)c2ccccc2n1 [Compound 32, N-(3-benzoylpropyl)-2'-propyl-hydrocinchonicine] gave a change in vivo at 10 mg/kg ([1]; 1 h) of -4%, a change in vivo at 10 mg/kg ([1]; 2 h) of -11% and a change in vivo at 10 mg/kg ([1]; 4 h) of -8%. The change in vivo at 10 mg/kg ([1]; 6 h) was -22%, the change in vivo at 10 mg/kg ([1]; 24 h) was -3% and the change in vivo at 32 mg/kg [2] was 52%.
In the case of CCCCCN1CC[C@@H](CCC(=O)c2cc(CCC)nc3ccccc23)[C@@H](CC)C1 [Compound 31, N-pentyl-2'-propyl-hydrocinchonicine], the change in vivo at 32 mg/kg [2] is reported as 31%.
Compound CCCc1cc(C(=O)CC[C@@H]2CCN(CCC)C[C@@H]2CC)c2ccccc2n1 [Compound 30, N-propyl-2'-propyl-hydrocinchonicine] has a change in vivo at 8 mg/kg ([2]; intraduodenal) of 60%.
Work on CC[C@H]1CN(CCCC(=O)c2ccccc2)CC[C@H]1CCC(=O)c1cc(C)nc2ccccc12 [Compound 25, N-(3-benzoylpropyl)-2'-methyl-hydrocinchonicine.bifumarate] yielded a change in vivo at 100 mg/kg ([1]; 1 h) of -16%, a change in vivo at 100 mg/kg ([1]; 2 h) of -25% and a change in vivo at 100 mg/kg ([1]; 4 h) of -9%. It also gave a change in vivo at 100 mg/kg ([1]; 6 h) of -5%, a change in vivo at 100 mg/kg ([1]; 24 h) of 2% and a change in vivo at 32 mg/kg [2] of 5%.
Work on CCCN1CC[C@@H](CC(=O)Cc2cc(OC)nc3ccccc23)[C@@H](CC)C1 [Compound 63, 1-(2-Methoxy-4-quinolyl)-3-[3(R)-ethyl-N-propyl-4(S)-piperidyl]-propanone-2.bioxalate] yielded a change in vivo at 10 mg/kg ([1]; 1 h) of -1%, a change in vivo at 10 mg/kg ([1]; 2 h) of 1% and a change in vivo at 10 mg/kg ([1]; 4 h) of -4%. It also gave a change in vivo at 10 mg/kg ([1]; 6 h) of -3%, a change in vivo at 10 mg/kg ([1]; 24 h) of -6% and a change in vivo at 4 mg/kg ([2]; intraduodenal) of 12%.
CCCN1CC[C@@H](CCCc2cc(O)nc3ccc(OC)cc23)[C@@H](CC)C1 [Compound 49] was tested, and the change in vivo at 16 mg/kg ([2]; intraduodenal) was 21%.
CC[C@H]1CN(CCCC(c2ccc(F)cc2)c2ccc(F)cc2)CC[C@H]1CC(O)Cc1cc(OC)nc2ccccc12 (stereo partly drawn) [Compound 55] showed a change in vivo at 10 mg/kg ([1]; 1 h) of -11%, a change in vivo at 10 mg/kg ([1]; 2 h) of -5% and a change in vivo at 10 mg/kg ([1]; 4 h) of -7%. For the same compound, the change in vivo at 10 mg/kg ([1]; 6 h) was -10% and the change in vivo at 10 mg/kg ([1]; 24 h) was -2%.
With CCCCCN1CC[C@@H](CC(O)Cc2cc(C(F)(F)F)nc3ccccc23)[C@@H](CC)C1 (stereo partly drawn) [Compound 61] the change in vivo at 10 mg/kg ([1]; 1 h) was -8%, the change in vivo at 10 mg/kg ([1]; 2 h) was -10% and the change in vivo at 10 mg/kg ([1]; 4 h) was -13%. The change in vivo at 10 mg/kg ([1]; 6 h) was -12%, the change in vivo at 10 mg/kg ([1]; 24 h) was -7% and the change in vivo at 8 mg/kg ([2]; intraduodenal) was 11%.
Work on CC[C@H]1CN(CCCC(=O)c2ccc(F)cc2)CC[C@H]1CCCc1cc(C)nc2ccccc12 [Compound 46, N-[3-(4-fluorobenzoyl)propyl]-2'-methyl-desoxo-hydrocinchonicine] yielded a change in vivo at 10 mg/kg ([1]; 1 h) of -22%, a change in vivo at 10 mg/kg ([1]; 2 h) of -24% and a change in vivo at 10 mg/kg ([1]; 4 h) of -20%. It also gave a change in vivo at 10 mg/kg ([1]; 6 h) of -20% and a change in vivo at 10 mg/kg ([1]; 24 h) of -1%.
Work on CC[C@H]1CN(CCCC(=O)c2ccc(F)cc2)CC[C@H]1CCCc1cc(C)nc2ccc(OCCC(C)C)cc12 [Compound 47, N-[3-(4-fluorobenzoyl)propyl]-2'methyl-6'-isopentoxy-oxy-desoxo-hydrocinchonicine] yielded a change in vivo at 10 mg/kg ([1]; 1 h) of -26%, a change in vivo at 10 mg/kg ([1]; 2 h) of -21% and a change in vivo at 10 mg/kg ([1]; 4 h) of -30%. The change in vivo at 10 mg/kg ([1]; 6 h) was -22% and the change in vivo at 10 mg/kg ([1]; 24 h) was 0%.
CCCN1CC[C@@H](CCC(O)c2cc(C)nc3ccc(OC)cc23)[C@@H](CC)C1 (stereo partly drawn) [Compound 40, N-propyl-2'-methyl-hydroquinicinol-1] gave a change in vivo at 16 mg/kg ([2]; intraduodenal) of 44%.
In the case of CCCc1cc(C(O)CC[C@@H]2CCN(CCC)C[C@@H]2CC)c2cc(OC)ccc2n1 (stereo partly drawn) [Compound 42, N-propyl-2'-propyl-hydroquinicinol-1], the change in vivo at 16 mg/kg ([2]; intraduodenal) is reported as 74%.
Compound CCCN1CC[C@@H](CC(O)Cc2cc(OC)nc3ccc(OC)cc23)[C@@H](CC)C1 (stereo partly drawn) [Compound 56] has a change in vivo at 20 mg/kg ([2]; at 20 mg/kg, intraduodenal) of 112%.
Compound C=C[C@H]1CN(CCCC(=O)c2ccc(F)cc2)CC[C@H]1CCC(=O)c1cc(C)nc2ccccc12 [Compound 28] has a change in vivo at 10 mg/kg ([1]; 1 h) of -5%, a change in vivo at 10 mg/kg ([1]; 2 h) of -2% and a change in vivo at 10 mg/kg ([1]; 4 h) of -10%. The change in vivo at 10 mg/kg ([1]; 6 h) was -11% and the change in vivo at 10 mg/kg ([1]; 24 h) was 5%.
For CC[C@H]1CN(C)CC[C@H]1CCC(=O)c1cc(OC)nc2ccccc12 [Compound 52, 2'-Methoxy-N-methyl-hydrocinchonicine.bioxalate], the change in vivo at 8 mg/kg ([2]; intraduodenal) was 25%.
Compound CCCCCN1CC[C@@H](CC(=O)Cc2cc(C(F)(F)F)nc3ccccc23)[C@@H](CC)C1 [Compound 64, 1-(2-Trifluoromethyl-4-quinolyl)-3-[3(R)-ethyl-N-pentyl-4(S)-piperidyl]-propanone-2.bifumarate] has a change in vivo at 100 mg/kg ([1]; 1 h) of -5%, a change in vivo at 100 mg/kg ([1]; 2 h) of -23% and a change in vivo at 100 mg/kg ([1]; 4 h) of -17%. It also gave a change in vivo at 100 mg/kg ([1]; 6 h) of -13% and a change in vivo at 100 mg/kg ([1]; 24 h) of -8%.
CCCN1CC[C@@H](CC(O)Cc2cc(C(F)(F)F)nc3ccccc23)[C@@H](CC)C1 (stereo partly drawn) [Compound 59, 1-(2-trifluoromethyl-4-quinolyl)-3-[3(R)-ethyl-N-propyl-4(S)-piperidyl]-propanol-2] was tested, and the change in vivo at 4 mg/kg ([2]; intraduodenal) was 55%.
With CC[C@H]1CN(CC(C)(C)O)CC[C@H]1CCC(=O)c1cc(C(C)C)nc2ccccc12 [Compound 36, N-(2-hydroxy-2-methylpropyl)-2'-isopropylhydrocinchonicine.bioxalate] the change in vivo at 32 mg/kg [2] was 91%.
